Reference: US20170007615A1, “Antibacterial Compounds” (priority 2014, published 2017)
Values after ≈ are worked out from the molar mass of the structure shown. Where two headings read alike, the source gives them in different places.

Key:
[1] = test system: S. aureus (ATCC 29213); test: Antibacterial activity (MIC), Gram-positive type strain; format: cell-based, Staphylococcus aureus; details: Staphylococcus aureus, ATCC29213; Table 13
[2] = test system: P. aeruginosa drug resistant clinical isolates; test: Antibacterial activity (MIC) against drug resistant clinical isolates, alone and with PMBN; format: cell-based; details: for MIC: Pseudomonas aeruginosa, read-out: MIC Compound alone
[3] = test system: E. cloaceae (ATCC 13047); test: microbe, parasite or virus in culture; details: Enterobacter cloacae, ATCC13047, read-out: MIC Compound alone
[4] = test system: A. baumannii drug resistant clinical isolates; test: Antibacterial activity (MIC) against drug resistant clinical isolates, alone and with PMBN; format: cell-based; details: for MIC: Acinetobacter baumannii, read-out: MIC Compound alone
[5] = test system: A. baumannii (ATCC 19606); test: microbe, parasite or virus in culture; details: Acinetobacter baumannii, ATCC19606, read-out: MIC Compound alone
[6] = test system: E. coli (ATCC 25922)
[7] = test system: E. faecalis (ATCC 29212); test: Antibacterial activity (MIC), Gram-positive type strain; format: cell-based, Enteroccocus faecalis; details: Enterococcus faecalis, ATCC29212; Table 13
[8] = test system: N. gonorrheae (ATCC 49226); test: Antibacterial activity (MIC), Gram-negative type strain; format: cell-based, Neisseria gonorrhoeae; details: Neisseria gonorrhoeae, ATCC49226; Table 13

MIC [1]: ≤ 0.008 µg/mL | MIC of Compound (μg/ml) in the presence of PMBN (128 μg/ml) ([2]; P. aeruginosa (MMX3007)): 0.03 µg/mL | MIC of Compound (μg/ml) in the presence of PMBN (128 μg/ml) ([2]; P. aeruginosa (MMX3022)): 0.03 µg/mL | MIC of Compound (μg/ml) in the presence of PMBN (128 μg/ml) ([2]; P. aeruginosa (MMX3025)): 0.03 µg/mL | MIC of Compound (μg/ml) in the presence of PMBN (128 μg/ml) ([2]; P. aeruginosa (MMX3026)): ≦0.008 μg/ml | MIC of Compound (μg/ml) in the presence of PMBN (128 μg/ml) ([2]; P. aeruginosa (MMX4700)): 0.12 µg/mL | MIC of Compound (μg/ml) in the presence of PMBN (128 μg/ml) ([2]; P. aeruginosa (NCTC13437)): 0.016 µg/mL | MIC ([2]; NCTC13437, P. aeruginosa (NCTC13437)): 16 µg/mL (≈ 30.4 µM) | MIC ([2]; P. aeruginosa (MMX3007)): > 16 µg/mL | MIC ([2]; P. aeruginosa (MMX3022)): 8 µg/mL (≈ 15.2 µM) | MIC ([2]; P. aeruginosa (MMX3025)): > 16 µg/mL | MIC ([2]; P. aeruginosa (MMX3026)): > 16 µg/mL | MIC ([2]; P. aeruginosa (MMX4700)): 16 µg/mL (≈ 30.4 µM) | MIC [3]: > 64 µg/mL | MIC of Compound (μg/ml) in the presence of PMBN (128 μg/ml) ([4]; A. baumannii (MMX 2585)): 0.12 µg/mL | MIC of Compound (μg/ml) in the presence of PMBN (128 μg/ml) ([4]; A. baumannii (MMX 2598)): 0.06 µg/mL | MIC of Compound (μg/ml) in the presence of PMBN (128 μg/ml) ([4]; A. baumannii (MMX 2600)): 0.06 µg/mL | MIC of Compound (μg/ml) in the presence of PMBN (128 μg/ml) ([4]; A. baumannii (MMX 4405)): 0.12 µg/mL | MIC of Compound (μg/ml) in the presence of PMBN (128 μg/ml) ([4]; A. baumannii (MMX 4454)): 0.12 µg/mL | MIC of Compound (μg/ml) in the presence of PMBN (128 μg/ml) ([4]; A. baumannii (MMX 6331)): 0.06 µg/mL | MIC of Compound (μg/ml) in the presence of PMBN (128 μg/ml) ([4]; A. baumannii (NCTC13301)): 0.12 µg/mL | MIC of Compound (μg/ml) in the presence of PMBN (128 μg/ml) ([4]; A. baumannii (NCTC13302)): 0.03 µg/mL | MIC of Compound (μg/ml) in the presence of PMBN (128 μg/ml) ([4]; A. baumannii (NCTC13303)): 0.06 µg/mL | MIC of Compound (μg/ml) in the presence of PMBN (128 μg/ml) ([4]; A. baumannii (NCTC13304)): 0.03 µg/mL | MIC of Compound (μg/ml) in the presence of PMBN (128 μg/ml) ([4]; A. baumannii (NCTC13305)): 0.12 µg/mL | MIC of Compound (μg/ml) in the presence of PMBN (128 μg/ml) ([4]; A. baumannii (NCTC 13420)): 0.03 µg/mL | MIC of Compound (μg/ml) in the presence of PMBN (128 μg/ml) ([4]; A. baumannii (NCTC13421)): 0.03 µg/mL | MIC of Compound (μg/ml) in the presence of PMBN (128 μg/ml) ([4]; A. baumannii (NCTC13422)): 0.03 µg/mL | MIC of Compound (μg/ml) in the presence of PMBN (128 μg/ml) ([4]; A. baumannii (NCTC13424)): 0.03 µg/mL | MIC ([4]; A. baumannii (MMX 2585)): 4 µg/mL (≈ 7.61 µM) | MIC ([4]; A. baumannii (MMX 2598)): 2 µg/mL (≈ 3.8 µM) | MIC ([4]; A. baumannii (MMX 2600)): 2 µg/mL (≈ 3.8 µM) | MIC ([4]; A. baumannii (MMX 4405)): 4 µg/mL (≈ 7.61 µM) | MIC ([4]; A. baumannii (MMX 4454)): 1 µg/mL (≈ 1.9 µM) | MIC ([4]; A. baumannii (MMX 6331)): 4 µg/mL (≈ 7.61 µM) | MIC ([4]; NCTC13301, A. baumannii (NCTC13301)): 4 µg/mL (≈ 7.61 µM) | MIC ([4]; NCTC13302, A. baumannii (NCTC13302)): 1 µg/mL (≈ 1.9 µM) | MIC ([4]; NCTC13303, A. baumannii (NCTC13303)): 2 µg/mL (≈ 3.8 µM) | MIC ([4]; NCTC13304, A. baumannii (NCTC13304)): 1 µg/mL (≈ 1.9 µM) | MIC ([4]; NCTC13305, A. baumannii (NCTC13305)): 2 µg/mL (≈ 3.8 µM) | MIC ([4]; NCTC13420, A. baumannii (NCTC 13420)): 1 µg/mL (≈ 1.9 µM) | MIC ([4]; NCTC13421, A. baumannii (NCTC13421)): 2 µg/mL (≈ 3.8 µM) | MIC ([4]; NCTC13422, A. baumannii (NCTC13422)): 4 µg/mL (≈ 7.61 µM) | MIC ([4]; NCTC13424, A. baumannii (NCTC13424)): 1 µg/mL (≈ 1.9 µM) | MIC [5]: 1 µg/mL (≈ 1.9 µM) | MIC of Compound (μg/ml) in the presence of PMBN (128 μg/ml) ([6]; Table 1, (b) No effect): 0.008 µg/mL | MIC of Compound (μg/ml) in the presence of Colistin (1 μg/ml) ([6]; Table 2, colistin sub-inhibitory): 0.25 µg/mL | MIC of Compound (μg/ml) in the presence of PMB (0.5 μg/ml) ([6]; Table 3, PMB sub-inhibitory): 0.12 µg/mL | MIC [7]: ≤ 0.008 µg/mL | MIC [8]: ≤ 0.008 µg/mL
Compound: CCNC(=O)Nc1nc2cc(-c3cnc(NS(=O)(=O)C(C)(C)C)nc3)cc(-c3ccc(C)cn3)c2s1 [Compound A-13, 1-[5-[2-(tert-Butylsulfonylamino)pyrimidin-5-yl]-7-(5-methyl-2-pyridyl)-1,3-benzothiazol-2-yl]-3-ethyl-urea]
